Test results as given in patent US11154519B2, “Inhibitors and their uses” (MEDICAL RESEARCH COUNCIL, priority 2015, dated 2021).

How the values were obtained:
[1] = tested on: eIF2α phosphorylation; assay: Assay 2: eIF2α phosphorylation in cells in the absence of stress; format: cell-based; settings: human cells
Protocol: HeLa cells were cultured in Dulbecco's Modified Eagle's Media (DMEM) supplemented with penicillin, streptomycin, containing 5% and 10% fetal bovine serum (FBS), respectively. MEF cells were cultured in DMEM supplemented with penicillin, streptomycin, glutamine, 55 μM β-mercaptoethanol, 1× non-essential amino acids (Sigma-Adrich) and 10% FBS. Where indicated, cells were treated with 2.5 μg/ml tunicamycin, 1 mM DTT (Sigma-Adrich) and or the indicated compounds at the indicated concentrations.
For immunoblots, HeLa cells (80,000 cells/ml) were plated in 12-well plates 24 hours before each experiment. Immediately after the indicated treatments, cells were lysed in 75 μl Laemmli Buffer, boiled at 95° C. for 5 minutes and sonicated. Proteins were separated and analysed as described (Tsaytler et al., Science, 332, 91-94, 2011) with the following antibodies: phospho-elf2α [pS52] and PPP1R15A/GADD34 (10449-1-AP; ProteinTech Group, 1/1000 dilution) and ATF4 (Sc-200 Santa Cruz).
Human cells were treated with a PPP1R15B inhibitor and eIF2α phosphorylation was monitored over time. […] This was manifested between 1 and 7.5 hours after addition of the compound of Example 1. […] Indeed, the inventors noticed that PPP1R15A was induced at the late time points following addition of the compound of Example 1 (see Assay 3). […] Furthermore, this establishes that the compound of Example 1 spares PPP1R15A. […]

[2] = Tissue distribution in mice after oral gavage; format: in vivo; settings: plasma, brain, spinal cord, pancreas, liver
[3] = tested on: PPP1R15A; assay: Assay 6: PPP1R15A induction in mouse brain (qPCR); format: in vivo; settings: mice, dose-dependent
Protocol: RNA from brain was extracted in trizol (Life Technologies). RNA concentration was measured using a NANODROP1000 spectrophotometer (Thermo Fisher Scientific), and 1 μg was reverse transcribed to cDNA using a SuperScript reverse transcriptase (Life Technologies). Quantitative PCR with primers GAPDH (f): […], GAPDH (r): […], PPP1R15A (f): […]; and PPP1R15A (r): […] was performed using SYBR® Select Master Mix (Ref 4472908, applied biosystems) on a Corbett Rotor-Gene version 6000. Expression of each gene was normalized to the housekeeping gene GAPDH and expressed as fold change calculated using Paffl equation.
PPP1R15A induction was assessed by qPCR on total mRNA extracted from brains of mice treated with the indicated doses of compound of Example 1.
This explains why a selective PPP1R15B inhibitor is tolerated in mice: PPP1R15A induction dephosphorylates eIF2α, ensuring that the eIF2α phosphorylation which results from PPP1R15B inhibition by a compound of Example 1 is only transient. This is important because a persistent phosphorylation of eIF2α is detrimental. The induction of PPP1R15A in vivo by a PPP1R15B inhibitor is a pharmacodynamic parameter that can be used to evaluate the efficacy and potency of PPP1R15B inhibitors in mammals in pre-clinical or clinical studies.

For `[H]/N=C(\N)NN=Cc1cccc(Cl)c1Cl` [Compound 16, (E)-2-(2,3-dichlorobenzylidene)hydrazine-1-carboximidamide], the eIF2α phosphorylation ([1]; 10 hours after addition) was “returned to basal levels”, the eIF2α phosphorylation ([1]; between 1 and 7.5 hours after addition) was “induced eIF2α phosphorylation” and the tissue distribution [2] was “extensive tissue distribution”. For the same compound, the “PPP1R15A induction (mRNA, brain)” value [3] was “induced PPP1R15A”.
